Data set [1] is described as follows: mn = molality of the nth substance listed, in mol/kg. Conditions: 101.3 kPa, Liquid; for viscosity: Capillary tube (Ostwald / Ubbelohde) method; for mass density: Pycnometric method.
The conditions of data set [2]: 101.3 kPa, Liquid, Capillary tube (Ostwald / Ubbelohde) method.

What is called viscosity is the internal friction of a fluid under shear. A word on the mass density: it is mass per unit of volume.

Numbers after ± are expanded uncertainties.

As for `O=C[C@H](O)[C@@H](O)[C@H](O)[C@H](O)CO` [D-glucose] + O, the viscosity amounted to 1.174 ± 0.025 mPa·s in data set [1] (288.15 K, m1 = 0.06); 0.9111 ± 0.019 mPa·s in data set [1] (298.15 K, m1 = 0.06); 0.7299 ± 0.015 mPa·s in data set [1] (308.15 K, m1 = 0.06). The mass density in data set [1] (288.15 K, m1 = 0.06) was found to be 1003.25 ± 0.45 kg/m3; in data set [1] (298.15 K, m1 = 0.06), 1001.17 ± 0.45 kg/m3; in data set [1] (308.15 K, m1 = 0.06), 998.15 ± 0.48 kg/m3.
For the molecule `[Cl-].[Na+]` [sodium chloride] + O, the viscosity in data set [1] (288.15 K, m1 = 0.06) stood at 1.146 ± 0.024 mPa·s; in data set [1] (298.15 K, m1 = 0.06) it was 0.896 ± 0.019 mPa·s; in data set [1] (308.15 K, m1 = 0.06) it was 0.7233 ± 0.015 mPa·s. The mass density in data set [1] (288.15 K, m1 = 0.06) came to 1001.64 ± 0.45 kg/m3; in data set [1] (298.15 K, m1 = 0.06), 999.52 ± 0.45 kg/m3.
Consider `O` [water], for which the viscosity in data set [2] (288.15 K) came out at 1.138 ± 0.024 mPa·s; in data set [2] (298.15 K), 0.8903 ± 0.018 mPa·s; in data set [2] (308.15 K), 0.7195 ± 0.015 mPa·s.
Take `O` [water] + CCCC(CCC)C(=O)[O-].[Na+]: the viscosity in data set [1] (288.15 K, m2 = 0) came out at 1.138 ± 0.024 mPa·s; in data set [1] (298.15 K, m2 = 0) it was 0.8903 ± 0.018 mPa·s; in data set [1] (308.15 K, m2 = 0), 0.7195 ± 0.015 mPa·s.

These data come from the NIST ThermoML archive (doi:10.1016/j.jct.2015.06.025).
